Each block holds one compound with its values, some of them ahead of it.
Experiments:
PSMA [1] = biological target: T1, PSMA (Homo sapiens, UniProt Q04609); assay: In vitro binding signals of 68Ga labeled ligands in LNCaP tumor homogenates; conditions: Ga-68 radiolabeled ligands
T1 construct: 100 μL of freshly harvested PSMA cells; endogenous in cells; host or cells: 'PSMA cells' in the method

PSMA [2] = biological target: T1, PSMA; assay: In vitro competitive binding assay to determine IC50 to PSMA; conditions: LNCaP cells, [125I]MIP-1095 radioligand, 37° C. 1 h, mean±SD (n=4); read-out: PSMA binding affinities of cold ligands, IC50
Description: In Vitro Competitive Binding Assay to Determine IC50 to PSMA
In order to determine the binding affinity, in vitro competitive binding assays were performed. The LNCaP cells were incubated with 150,000 cpm of [^125I]MIP-1095 in the presence of 10 different concentrations of competing drugs. After incubation at 37° C. for 1 h, the bound and free radioactivity were separated by vacuum filtration through GF/B filter paper using a Brandel M-24R cell harvester followed by washing twice. Non-specific binding was defined with 10 μM PMPA. The cell bound radioactivity was measured with a gamma counter, 2470 Wizard^2 (Perkin-Elmer, IL). The IC50 values were calculated by fitting the data using a nonlinear regression algorithm (GraphPad Software).
The PSMA binding affinities were determined in a competitive binding assay using LNCaP human prostate carcinoma cells and the known high affinity PSMA ligand, [^125I]MIP-1095 as the radioligand. Data are expressed as mean±SD (n=4).

[3] = tested on: LNCaP tumor bearing nude mice; assay: Biodistribution of [68Ga]labeled ligand in PSMA positive tumor bearing nude mice; type: in vivo, mouse; conditions: 1 h post-injection, i.v., n = 3
Description: In a dish contained 5×10^6 cells of LNCaP in 50% Matrigel (Becton Dickinson, Heidelberg, Germany) were subcutaneously inoculated into the left shoulder of male 5- to 6-week-old CD-1 nu/nu mice (Charles River Laboratories). The tumors were allowed to grow for 8 weeks until approximately 0.5 cm^3 in size.
The ^68Ga-radiolabeled compounds were injected via tail vein (25 μCi per mouse; 0.1-0.2 nmol). At 1 h after injection, the animals were sacrificed. Organs of interest were dissected and weighed. The radioactivity was measured with a gamma counter and calculated as % ID/g.

[4] = tested on: PSMA-expressing LNCaP cells; assay: Cell binding and internalization; type: cell-based, human; conditions: 37° C.
Description: The cellular uptake and internalization kinetics of the [^68Ga]1a, [^68Ga]5a and [^68Ga]5b were determined using PSMA-expressing LNCaP cells. Furthermore, to be able to discriminate between total cellular activity (sum of membrane-associated and internalized activity) and internalized activity, all incubations were followed by a washing step with mild acid at 4° C. to remove specifically cell-surface bound radioligand by displacement.
LNCaP cells (in 6-well plates in triplicates) were incubated in RPMI-1640 medium with [^68Ga]1a, [^68Ga]5a or [^68Ga]5b for 0-2 h at 37° C. At the indicated time, the medium was removed and the cells were washed twice and then incubated with a mild acid buffer (50 mM glycine, 150 mM NaCl, pH 3.0) at 4° C. for 5 min. The supernatant (containing cell surface-bound radioactivity) was pooled and the cell pellet (containing internalized radioactivity) was collected with filter paper and then radioactivity in supernatant and cell pellet was counted on a gamma counter.
LNCaP cells were incubated with [^68Ga]1a, [^68Ga]5a and [^68Ga]5b for up to 2 h at 37° C. to determine whether the compound is internalized by endocytosis. The cells were then washed with a mild acid buffer to remove extracellularly bound compound.
Non specific binding (NSB) was evaluated by blocking with 20 μM PMPA. Specificity of cell uptake (SB) was calculated by subtracting the respective signals resulting from PMPA blocking. Values are expressed as % of applied radioactivity bound to 10^6 cells.

T1 sequence (Q04609 whole entry): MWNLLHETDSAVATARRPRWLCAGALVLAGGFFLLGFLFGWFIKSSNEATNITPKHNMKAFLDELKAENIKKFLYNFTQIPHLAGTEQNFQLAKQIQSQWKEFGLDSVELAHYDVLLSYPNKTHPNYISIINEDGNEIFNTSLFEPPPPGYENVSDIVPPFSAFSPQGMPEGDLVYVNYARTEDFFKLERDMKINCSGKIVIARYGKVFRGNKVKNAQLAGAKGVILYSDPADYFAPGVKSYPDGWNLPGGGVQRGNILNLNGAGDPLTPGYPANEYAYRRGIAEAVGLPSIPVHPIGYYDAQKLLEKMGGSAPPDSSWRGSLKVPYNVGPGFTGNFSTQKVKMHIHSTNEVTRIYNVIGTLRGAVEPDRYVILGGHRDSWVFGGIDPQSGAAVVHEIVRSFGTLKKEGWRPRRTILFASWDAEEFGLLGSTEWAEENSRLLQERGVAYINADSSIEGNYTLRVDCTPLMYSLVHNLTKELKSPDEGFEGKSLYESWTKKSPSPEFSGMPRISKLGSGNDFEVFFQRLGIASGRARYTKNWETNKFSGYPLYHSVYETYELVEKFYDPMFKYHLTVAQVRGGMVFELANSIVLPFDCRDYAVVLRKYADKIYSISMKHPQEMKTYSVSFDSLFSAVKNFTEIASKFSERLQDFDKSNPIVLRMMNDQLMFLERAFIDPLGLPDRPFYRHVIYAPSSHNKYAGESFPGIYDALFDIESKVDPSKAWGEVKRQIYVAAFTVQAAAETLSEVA

- IC50 (PSMA [2]): 5 ± 1.9 nM
SMILES: O=C(O)CC[C@H](NC(=O)N[C@@H](CCCCNC(=O)[C@H](Cc1ccccc1)NC(=O)COc1ccc(C[C@H](NC(=O)CNC(=O)c2cccc(I)c2)C(=O)O)cc1)C(=O)O)C(=O)O [Compound 5c, (4S,11S,15S)-4-Benzyl-1-(4-((S)-2-carboxy-2-(2-(3-iodobenzamido)acetamido)ethyl)phenoxy)-2,5,13-trioxo-3,6,12,14-tetraazaheptadecane-11,15,17-tricarboxylic acid]

- IC50 (PSMA [2]): 5.3 ± 2.2 nM
SMILES: O=C(O)CC[C@H](NC(=O)N[C@@H](CCCCNC(=O)[C@H](Cc1ccccc1)NC(=O)COc1ccc(C[C@H](NC(=O)CNC(=O)c2ccccc2I)C(=O)O)cc1)C(=O)O)C(=O)O [Compound 5d, (4S,11S,15S)-4-Benzyl-1-(4-((S)-2-carboxy-2-(2-(2-iodobenzamido)acetamido)ethyl)phenoxy)-2,5,13-trioxo-3,6,12,14-tetraazaheptadecane-11,15,17-tricarboxylic acid]

- IC50 (PSMA [2]): 6 ± 1.8 nM
SMILES: O=C(O)CC[C@H](NC(=O)N[C@@H](CCCCNC(=O)[C@H](Cc1ccccc1)NC(=O)COc1ccc(C[C@H](NC(=O)CNC(=O)c2ccc(F)nc2)C(=O)O)cc1)C(=O)O)C(=O)O [Compound 5e]

- IC50 (PSMA [2]): 4.6 ± 1.4 nM
SMILES: O=C(O)CC[C@H](NC(=O)N[C@@H](CCCCNC(=O)Nc1ccc(I)cc1)C(=O)O)C(=O)O [MIP-1095, reference compound]

Further lines, the compound ahead of its results:

SMILES: O=C(O)CCc1ccc(O)c(CN(CCN(CC(=O)O)Cc2cc(CCC(=O)NCCCCCC(=O)NCCCC[C@H](NC(=O)N[C@@H](CCC(=O)O)C(=O)O)C(=O)O)ccc2O)CC(=O)O)c1 [Compound 1a, Glu-NH—CO—NH-Lys(Ahx)-HBED-CC, reference compound]
- Specific binding (SB) SB = TB − NSB (PSMA [1]): 12.3
- Total binding (TB) (PSMA [1]; 37° C. 60 min): 13.5
- Nonspecific binding (NSB) (PSMA [1]; with 1a (PSMA11) 10 μM): 1.2
- IC50 (PSMA [2]): 16.6 ± 2.4 nM

SMILES: O=C(O)CC[C@H](NC(=O)N[C@@H](CCCCNC(=O)[C@H](Cc1ccccc1)NC(=O)COc1ccc(C[C@H](NC(=O)CNC(=O)C[N+]23CC[N+]45CC[N+]6(CC(=O)O)CC[N+]7(CC2)CC(=O)[O][68Ga-3]6347[O]C(=O)C5)C(=O)O)cc1)C(=O)O)C(=O)O (stereo partly shown) [[^68Ga]5a]
- Organ distribution: Blood [3]: 0.36 ± 0.05 % dose/g
- Organ distribution: Bone [3]: 0.11 ± 0.04 % dose/g
- Organ distribution: Brain [3]: 0.03 ± 0.01 % dose/g
- Organ distribution: Heart [3]: 0.19 ± 0.04 % dose/g
- Organ distribution: Liver [3]: 0.36 ± 0.10 % dose/g
- Organ distribution: Lung [3]: 0.46 ± 0.13 % dose/g
- Organ distribution: Muscle [3]: 0.21 ± 0.15 % dose/g
- Organ distribution: Pancreas [3]: 0.20 ± 0.05 % dose/g
- Organ distribution: Skin [3]: 0.33 ± 0.17 % dose/g
- Organ distribution: Spleen [3]: 0.70 ± 0.38 % dose/g
- Cell surface binding activity ([4]; 5 min): 1.67 ± 0.24 % ID/10^6 cells
- Internalized activity ([4]; 5 min): 0.21 ± 0.04 % ID/10^6 cells
- Cell surface binding activity ([4]; 15 min): 1.92 ± 0.24 % ID/10^6 cells
- Internalized activity ([4]; 15 min): 1.14 ± 0.21 % ID/10^6 cells
- Cell surface binding activity ([4]; 30 min): 1.96 ± 0.27 % ID/10^6 cells
- Internalized activity ([4]; 30 min): 2.55 ± 0.42 % ID/10^6 cells
- Cell surface binding activity ([4]; 60 min): 1.89 ± 0.13 % ID/10^6 cells
- Internalized activity ([4]; 60 min): 3.70 ± 0.44 % ID/10^6 cells
- Cell surface binding activity ([4]; 90 min): 2.33 ± 0.01 % ID/10^6 cells
- Internalized activity ([4]; 90 min): 5.40 ± 0.13 % ID/10^6 cells
- Cell surface binding activity ([4]; 120 min): 2.03 ± 0.23 % ID/10^6 cells
- Internalized activity ([4]; 120 min): 5.43 ± 1.20 % ID/10^6 cells

SMILES: O=C(O)CCc1ccc2c(c1)C[N+]13CC[N+]45CC(=O)[O][Ga-3]14([O]C(=O)C3)([O]2)[O]c1ccc(CCC(=O)NCC(=O)N[C@@H](Cc2ccc(OCC(=O)N[C@@H](Cc3ccccc3)C(=O)NCCCC[C@H](NC(=O)N[C@@H](CCC(=O)O)C(=O)O)C(=O)O)cc2)C(=O)O)cc1C5 (stereo partly shown) [[^natGa]5b]
- IC50 (PSMA [2]): 16.5 ± 3.1 nM

From patent US10688200B2, “Urea-based prostate specific membrane antigen (PSMA) inhibitors for imaging and therapy” (Five Eleven Pharma Inc., priority 2015, dated 2020)
